Experimental data taken from US9233127B2, “Compositions and methods for CXCR4 signaling and umbilical cord blood stem cell engraftment” (University of Virginia Patent Foundation, priority 2012, dated 2016).
Entries after “also recorded” stand apart in the source; their conditions may differ.

Key:
CD34+ cells = experiment: Transwell chemotaxis of CD34+ cells to an SDF-1 gradient (priming); type: cell-based, human
Experimental: FIG. 11A-B—Effect of SLP and its components on chemotaxis of CD34^+ cells. Panel A: Chemotaxis of BM CD34^+ cells towards medium alone (control), SDF-1 low (10 ng/mL) alone, SLP (combined SLP from three patients), SDF-1 low+SLP, and SDF-1 high (300 ng/mL). Data are pooled from quadruplicate samples from three independent experiments. *p<0.00001. Panel B: Chemotaxis of UCB CD34^+ cells to medium alone (control), SDF-1 low (10 ng/mL) alone and SDF-1 low (10 ng/mL)+uPAR (1 μg/mL) or +ICAM (1 μg/mL) or +VCAM (1 μg/mL) or +FN (2 μg/mL), or +FG (4 μg/mL) or +C3a (1 μg/mL). Data are pooled from quadruplicate samples from three independent experiments. * p<0.00001.
Chemotaxis of CD34^+ cells to medium alone (control), C3a (1 μg/ml), C3adesArg (1 μg/ml), SDF-1 low (10 ng/mL) alone, and SDF-1 low (10 ng/mL)+C3a low (0.1 μg/ml) or SDF-1 low (10 ng/mL)+C3a (1 μg/ml) or SDF-1 low (10 ng/mL)+C3adesArg (1 μg/ml). Data are pooled from quadruplicate samples from three independent experiments.* p<0.00001.
FIG. 13A-B—Chemotaxis of cells to an SDF-1 gradient is lipid raft-dependent. Panel A: Chemotaxis of CD34^+ cells to medium alone (control), SDF-1 (300 ng/mL) and SDF-1 (300 ng/mL) after preincubation for 1 hr with Amphotericin (10 μg/mL) or Nystatin (50 μg/mL). Cells were collected after chemotaxis from the lower chambers and plated in a clonogenic assay. The number of CFU-GM and BFU-E colonies formed by harvested cells is shown as a percentage of control values. Data are pooled from quadruplicate samples from three independent experiments. *p<0.0001. Panel B: Chemotaxis of CD34^+ cells towards medium alone (control), SDF-1 low (10 ng/mL) alone, or SDF-1 low with cells exposed to C3a (1 μg/mL). Cells pretreated before chemotaxis for 1 hr with MβCD (2.5 mM) are shown as gray bars. Data are pooled from quadruplicate samples from three independent experiments. * p<0.00001.
HSPCs from the mPB engraft faster compared to HSPCs aspirated from BM. To test the hypothesis that mPB-derived HSPCs are primed in their responses to SDF-1 by molecules present in SLP, we pooled together SLP from three patients and exposed BM or UCB CD34^+ cells to the SLP during chemotaxis to a low (10 ng/mL) dose of SDF-1.
To address this issue further, the formation of rafts in the cells was perturbed by MβCD, which depletes cholesterol from the cell membrane. The CD34^+ cells were pre-incubated with MβCD for 1 hr. Chemotaxis to a low dose of SDF-1 in the presence of C3a (in the upper chambers) was evaluated.

[1] = test system: human BM- and UCB-derived CD34+ cells; experiment: Homing of primed human CD34+ cells into BM of lethally irradiated NOD/SCID mice; type: in vivo
Description: FIG. 16A-B—Panel A: C3a primes homing of murine CFU-GM and CFU-S into BM of lethally irradiated mice. Murine BM-derived Sca-1^+ cells (10^5/mouse) were transplanted into lethally irradiated syngeneic mice. At 16 hrs after transplant, cells were recovered from the femurs of transplanted animals and assayed in secondary cultures for the number of clonogenic CFU-GM (left panel) and, after transplant into secondarily irradiated animals, for the number of day-12 CFU-S (right panel). Data are pooled from three independent experiments using 10 mice each/tested cells (n=30). * p<0.0001. No HSPC cells were recovered from the marrow cavities of control animals (irradiated, not transplanted) Panel B: C3a primes homing of human CB and BM CD34^+ cells into the BM of lethally irradiated NOD/SCID mice. […] Data are pooled from independent experiments preformed on three different CB- and three different BM samples using 2-4 mice/tested cell sample. p<0.0001.
As final proof of our hypothesis and to test whether the primed cells home better to BM, we primed murine BM-derived Sca-1^+ and human BM- and UCB-derived CD34^+ cells with C3a before their transplantation into lethally irradiated mice. Sixteen hrs after transplantation, recipient mice were sacrificed and cells were recovered from their marrow cavities. […]

[2] = test system: UCB progenitors (human CD45 cells); experiment: Long-term human engraftment of C3a primed UCB in NOD/SCID mice; type: in vivo
Experimental: FIG. 5A-B—Long-Term Engraftment of C3a Primed Progenitors (comprising upper and lower panels).
FIG. 54A-B—NOD.SCID engraftment comparing C3a Primed UCB vs. Control. […] 54A—control; 54B—C3a
These laboratory experiments were performed to evaluate responsiveness of UCB to SDF-1 gradient correlated with an outcome of injections in NOD/SCID mice to evaluate engraftment in vivo. In vivo studies incorporated humanized NOD.SCID/IL2rγ^null (NOG) mice were conducted to assess proportions and kinetics of human HSC homing, engraftment, comparing C3a primed UCB CD34^+ HSC vs. controls. NOD.SCID/IL2rγ^null is used in our studies as these mice lack the cytoplasmic region of the IL-2Rγ and reproducibly develop human T, myeloid, NK, and B-lymphoid cells when transplanted with cord blood CD34^+ cells. This model therefore provides a platform to analyze in vivo competitive repopulation of the full lymphopoietic system. […] More mature progenitors are considered to have exhausted after 8 weeks in this NOD.SCID model and human cells present are presumed to be derived from transplanted primitive progenitor cells. HLA staining was used to determine UCB chimerism and relative contribution of C3a primed UCB CD34^+ HSC to marrow engraftment.

UCB MNC = experiment: In vitro migration assay UCB (CD34+ HSC enumerated by FACS); type: cell-based, human; details: C3a 1 ug/ml; 3 h chemotaxis assay
Experimental: FIG. 52—In Vitro Migration Assay UCB. UCB MNC are loaded in the top chamber and the number of CD34^+ HSC present after the 3 h chemotaxis assay in the lower chambers from trans-wells are enumerated by FACS.

C3a: 77 amino acid residue protein derived from the human complement C3a precursor; SEQ ID NO:1
chemotaxis of human CD34+ cells to low-threshold doses of SDF-1 (CD34+ cells; SDF-1 low 10 ng/mL, C3a or C3adesArg 1 μg/ml): potentiate (prime) chemotaxis
chemoattraction of CD34+ cells by the C3 cleavage fragment on its own (CD34+ cells; no SDF-1, 1 μg/ml): neither C3 cleavage fragments chemoattract
marrow homing, number of CFU-GM harvested per femur ([1]; 24 h after injection of NOD/SCID mice, C3a primed UCB CD34+ HSC): enhanced marrow homing
homing of human CFU-GM into BM ([1]; CB and BM CD34+ cells preincubated with C3a 30 min, 16 hrs after transplantation): home more efficiently; also recorded: homed better; also recorded: primes homing
human CD45 cells detected by FACS in marrow ([2]; NOD.SCID at 8 weeks after injection, vs control): significantly higher
long-term human engraftment, flow cytometry for human anti-CD45 ([2]; NOD/SCID mice harvest after 12 weeks, vs unprimed cells): exhibit long-term human engraftment
rates of UCB chemotaxis in vitro (UCB MNC): significantly higher rates
